Where two headings read alike, the source gives them in different places.
Columns and labels:
BALB/C mice = assay: Anesthesia in mice, tail vein injection (loss of righting reflex); type: in vivo
Method: Anesthetic evaluations were performed in 7-8 week-old BALB/C mice, weighing approximately 20 g. Steroids were dissolved in 22.5% (w/v) 2-hydroxypropyl-β-cyclodextrin solution (Sigma-Aldrich) at a concentration of 1.6 mg/ml or 3.2 mg/ml and injected through the tail vein in volumes of 5 μl/g body weight. Doses (8 or 16 mg/kg) were calculated according to body weight. Animals were placed prone as soon as they stopped moving. Loss of LRR was defined as inability of mice to right themselves within 5 seconds after being placed in a prone position. […] Animals were placed on a warming blanket during the time that they were anesthetized. Each dose was administered to three or four mice and the results are presented as mean±standard error of the mean.

tadpole = assay: Tadpole loss of righting reflex (LRR) and loss of swimming reflex (LSR); type: in vivo
[1] = target: rat α1β2γ2L type GABAA receptors (Rattus norvegicus (Rat), UniProt P62813+P63138, INS375LLRMFSFK); assay: Oocyte electrophysiology: potentiation of 2 μM GABA chloride currents and direct gating, Xenopus laevis oocytes; type: cell-based; details: for ratio of currents measured in the presence/absence of added compound, 0.1 μM: 0.1 μM compound; for ratio of currents measured in the presence/absence of added compound, 0.1 μM / ratio of currents measured in the presence/absence of added compound, 1 μM / (gating) 10 μM: ratio of compound only current/2 μM GABA current / ratio of currents measured in the presence/absence of added compound, 10 μM: ± SEM; for ratio of currents measured in the presence/absence of added compound, 0.1 μM / ratio of currents measured in the presence/absence of added compound, 1 μM / ratio of currents measured in the presence/absence of added compound, 10 μM: N ≥ 4; for ratio of currents measured in the presence/absence of added compound, 1 μM: 1 μM compound; for (gating) 10 μM: ratio of compound only current/2 μM GABA current: 10 μM compound in the absence of GABA; for ratio of currents measured in the presence/absence of added compound, 10 μM: 10 μM compound
From the text: The measured concentration of GABA, on average, gates about 4% of the maximum response of a cell. However, the sensitivity to GABA of the receptors, which determines the degree of steroid potentiation that can be measured, varied from one batch of oocytes to another.

[2] = target: picrotoxin binding site on GABAA receptors; details: for IC50: duplicate experiments in triplicate, ± SEM, read-out: IC50, inhibition of [35S]-TBPS binding
[3] = loss of righting reflex, ± SEM, read-out: Tadpole LRR EC50
[4] = loss of swimming reflex, None = all animals had a swimming response at 10 μM, read-out: Tadpole LSR EC50
[5] = loss of swimming reflex, None = all animals had a swimming response at 10 μM

Compound | EC50 (tadpole; [3]) | EC50 (tadpole; [4]) | ratio of currents measured in the presence/absence of added compound, 0.1 μM ([1]; 2 μM GABA) | ratio of currents measured in the presence/absence of added compound, 1 μM ([1]; 2 μM GABA) | (gating) 10 μM: ratio of compound only current/2 μM GABA current [1] | ratio of currents measured in the presence/absence of added compound, 10 μM ([1]; 2 μM GABA) | IC50 [2] | other results
CC(=O)[C@H]1CC[C@H]2[C@@H]3CC[C@H]4C[C@H](O)CC[C@]4(C)[C@H]3C(=O)C[C@]12C [Compound 1, alphaxalone, reference compound] | – | – | – | – | – | – | – | duration of anesthesia (loss of righting reflex) (BALB/C mice; 16 mg/kg): about 4 min; recovery period from initial return of leg movement to righting and walking (BALB/C mice; 16 mg/kg): 1 to 2 min
C[C@]12CC[C@@H](O)C[C@@H]1CC[C@@H]1[C@@H]2C(=O)C[C@]2(C)C(C=O)=CC[C@@H]12 [Compound 5a, (3α,5α)-3-Hydroxy-11-oxoandrost-16-ene-17-carboxaldehyde] | 3.22 ± 0.03 µM | – | – | – | – | – | – | –
C[C@]12CC[C@@H](O)C[C@@H]1CC[C@H]1[C@@H]3CC[C@H](C=O)[C@@]3(C)CC(=O)[C@@H]12 [Compound 5b, (3α,5α,17β)-3-Hydroxy-11-oxoandrostane-17-carboxaldehyde] | 3.98 ± 2.43 µM | – | – | – | – | – | – | –
C[C@]12CC[C@@H](O)C[C@@H]1CC[C@@H]1[C@@H]2C(=O)C[C@]2(C)/C(=C\C#N)CC[C@@H]12 [Compound 6a, [3α,5α,17(20)Z]-3-Hydroxy-11-oxopregn-17(20)-ene-2′-nitrile] | – | 5.48 ± 0.2 µM | – | – | – | – | – | potentiation of GABA-mediated currents ([1]; 2 μM GABA, 0.1-10 μM compound): strongly enhanced GABA-mediated currents; duration of anesthesia (loss of righting reflex) (BALB/C mice; 8 mg/kg): about 1.5 min; time to loss of movement and righting reflex (BALB/C mice; 8 mg/kg): 10 to 25 s; duration of anesthesia (loss of righting reflex) (BALB/C mice; 16 mg/kg): about 4 min; onset of loss of righting reflex (BALB/C mice; 16 mg/kg): immediate
C[C@]12CC[C@@H](O)C[C@@H]1CC[C@@H]1[C@@H]2C(=O)C[C@]2(C)/C(=C/C#N)CC[C@@H]12 [Compound 6b, [3α,5α,17(20)E]-3-Hydroxy-11-oxopregn-17(20)-ene-2′-nitrile] | 9.15 ± 5.37 µM | 17.3 ± 0.17 µM | – | – | – | – | – | –
C/C(C#N)=C1\CC[C@H]2[C@@H]3CC[C@H]4C[C@H](O)CC[C@]4(C)[C@H]3C(=O)C[C@]12C [Compound 6c, [3α,5α,17(20)Z]-3-Hydroxy-11-oxopregn-17(20)-ene-20-carbonitrile] | 2.71 ± 0.26 µM | 5.48 ± 0.2 µM | – | – | – | – | – | –
C[C@]12CC[C@@H](O)C[C@H]1CC[C@@H]1[C@@H]2C(=O)C[C@]2(C)/C(=C\C#N)CC[C@@H]12 [Compound 13a, [3α,5β,17(20)Z]-3-Hydroxy-11-oxo-pregn-17(20)-ene-21-nitrile] | > 10 µM | – | – | – | – | – | – | Tadpole LSR EC50 (tadpole; [5]): None
C[C@]12CC[C@@H](O)C[C@H]1CC[C@@H]1[C@@H]2C(=O)C[C@]2(C)/C(=C/C#N)CC[C@@H]12 [Compound 13b, [3α,5β,17(20)E]-3-Hydroxy-11-oxo-pregn-17(20)-ene-21-nitrile] | > 10 µM | – | – | – | – | – | – | Tadpole LSR EC50 (tadpole; [5]): None
C[C@]12CC[C@@H](O)C[C@@H]1CC[C@@H]1[C@@H]2CC[C@]2(C)/C(=C\C#N)CC[C@@H]12 [Compound 14a, [3α,5α,17(20)Z]-3-Hydroxypregn-17(20)-ene-21-nitrile] | – | – | 2.18 ± 0.19 | 3.28 ± 0.37 | 0.29 ± 0.32 | 3.98 ± 0.25 | 0.025 ± 0.003 µM | anesthetic activity in tadpoles (tadpole; LRR and LSR): lack of anesthetic activity; Tadpole LRR EC50 (tadpole; loss of righting reflex, ± SEM): None; Tadpole LSR EC50 (tadpole; [5]): None; fold stronger [35S]-TBPS displacement than 17a ([2]; relative to C-11 MeO (17a)): about 2 fold; fold stronger [35S]-TBPS displacement than 6a ([2]; relative to C-11 carbonyl (6a)): about 5 fold
C[C@]12CC[C@@H](O)C[C@@H]1CC[C@@H]1[C@@H]2CC[C@]2(C)/C(=C/C#N)CC[C@@H]12 [Compound 14b, [3α,5α,17(20)E]-3-Hydroxypregn-17(20)-ene-21-nitrile] | 1.21 ± 0.41 µM | > 10 µM | 0.76 ± 0.05 | 1.30 ± 0.07 | −0.14 ± 0.13 | 3.15 ± 0.38 | 0.501 ± 0.039 µM | –
C[C@]12CC[C@@H](O)C[C@H]1CC[C@@H]1[C@@H]2CC[C@]2(C)/C(=C\C#N)CC[C@@H]12 [Compound 15a, [3α,5β,17(20)Z]-3-Hydroxypregn-17(20)-ene-21-nitrile] | 0.472 ± 0.046 µM | 1 µM | 1.32 ± 0.03 | 5.00 ± 0.30 | 0.03 ± 0.02 | 6.82 ± 0.68 | 0.056 ± 0.01 µM | –
C[C@]12CC[C@@H](O)C[C@H]1CC[C@@H]1[C@@H]2CC[C@]2(C)/C(=C/C#N)CC[C@@H]12 [Compound 15b, [(3α,5β,17(20)E]-3-Hydroxypregn-17(20)-ene-21-nitrile] | 1.21 ± 0.35 µM | 5.48 ± 0.2 µM | 0.94 ± 0.02 | 1.24 ± 0.04 | 0.01 ± 0.01 | 4.83 ± 0.44 | 1.2 µM | –
CO[C@H]1C[C@@]2(C)[C@@H](CC[C@@H]3[C@@H]2CC[C@]2(C)/C(=C\C#N)CC[C@@H]32)C[C@@H]1O [Compound 16a, [2β,3α,5α,17(20)Z]-3-Hydroxy-2-methoxyandrost-17(20)-ene-21-nitrile] | 0.029 ± 0.006 µM | 0.11 ± 0.001 µM | 2.14 ± 0.33 | 12.02 ± 2.54 | 0.40 ± 0.12 | 18.77 ± 5.16 | 0.028 ± 0.002 µM | –
CO[C@H]1C[C@@]2(C)[C@@H](CC[C@@H]3[C@@H]2CC[C@]2(C)/C(=C/C#N)CC[C@@H]32)C[C@@H]1O [Compound 16b, [2β,3α,5α,17(20)E]-3-Hydroxy-2-methoxyandrost-17(20)-ene-21-nitrile] | 0.29 ± 0.05 µM | 2.97 µM | 0.95 ± 0.15 | 1.34 ± 0.07 | 0.03 ± 0.14 | 4.81 ± 0.36 | 0.544 ± 0.087 µM | –
CO[C@H]1C[C@]2(C)/C(=C\C#N)CC[C@H]2[C@@H]2CC[C@H]3C[C@H](O)CC[C@]3(C)[C@H]21 [Compound 17a, [3α,5α,11β,17(20)Z]-3-Hydroxy-11-methoxypregn-17(20)-ene-21-nitrile] | 0.067 ± 0.003 µM | 0.173 ± 0.003 µM | 2.14 ± 0.28 | 10.28 ± 2.62 | 0.06 ± 0.07 | 11.20 ± 3.28 | 0.053 ± 0.007 µM | –
CO[C@H]1C[C@]2(C)/C(=C/C#N)CC[C@H]2[C@@H]2CC[C@H]3C[C@H](O)CC[C@]3(C)[C@H]21 [Compound 17b, [3α,5α,11β,17(20)E]-3-Hydroxy-11-methoxypregn-17(20)-en-21-nitrile] | 1.19 ± 0.49 µM | 3.17 ± 0.01 µM | 0.99 ± 0.02 | 1.07 ± 0.03 | 0.01 ± 0 | 3.68 ± 0.17 | 0.605 ± 0.139 µM | –
[3α,5α,17(20)E]-3-(Acetyloxy)-11-oxopregn-17(20)-ene-20-carbonitrile [Compound 6d] | 2.09 ± 0.12 µM | > 10 µM | – | – | – | – | – | –

Reference: US9388210B2, “Neuroactive 17(20)-Z-vinylcyano-substituted steroids, prodrugs thereof, and methods of treatment using same” (priority 2011, dated 2016)
